Results published in patent US20090053741A1 (priority 2005, published 2009).
One block for each molecule: values may come before it.

Experiments:
DDAH = assay: ADMA binding to DDAH (initial studies; equilibrium dialysis and calorimetry)
Excerpt: Secondly, the researchers tried to improve the binding of ADMA to DDAH through mutagenesis. Three more mutations were generated in E114 and around this residue. These were E114D, E114D+A115G, L18H (residue in the loop) and P80A. […] Other mutations around the active site were also generated: L161F, G116A, G116V and G116T.
Thirdly, the researchers tried to calculate a Kd for ADMA of DDAH using nuclear magnetic resonance imaging using the C249S or H162A mutant. […] Fourthly, the researchers tried a fluorophore (fluoresceine 5 maleimide or acrylodan) approach to measure the Kd for ADMA. […] Finally, the researchers generated four mutations with tryptophan: V15W and D16W (in the loop) as well as F58W and E90W (close to the active site). These four residues move in the NMR spectrum when inhibitors bind to the protein.

nitric oxide synthase = details: cited from earlier work; for inhibition of NOS (in words): background statement
iNOS = biological target: T1, iNOS (Mus musculus, UniProt P29477); assay: [14C]L-NMMA binding to lysates of cytokine-stimulated J774 cells (iNOS lysate), filter assay; details: excess 1000-fold L-NMMA, FIG. 1, preliminary
T1 sequence (P29477 1-1144): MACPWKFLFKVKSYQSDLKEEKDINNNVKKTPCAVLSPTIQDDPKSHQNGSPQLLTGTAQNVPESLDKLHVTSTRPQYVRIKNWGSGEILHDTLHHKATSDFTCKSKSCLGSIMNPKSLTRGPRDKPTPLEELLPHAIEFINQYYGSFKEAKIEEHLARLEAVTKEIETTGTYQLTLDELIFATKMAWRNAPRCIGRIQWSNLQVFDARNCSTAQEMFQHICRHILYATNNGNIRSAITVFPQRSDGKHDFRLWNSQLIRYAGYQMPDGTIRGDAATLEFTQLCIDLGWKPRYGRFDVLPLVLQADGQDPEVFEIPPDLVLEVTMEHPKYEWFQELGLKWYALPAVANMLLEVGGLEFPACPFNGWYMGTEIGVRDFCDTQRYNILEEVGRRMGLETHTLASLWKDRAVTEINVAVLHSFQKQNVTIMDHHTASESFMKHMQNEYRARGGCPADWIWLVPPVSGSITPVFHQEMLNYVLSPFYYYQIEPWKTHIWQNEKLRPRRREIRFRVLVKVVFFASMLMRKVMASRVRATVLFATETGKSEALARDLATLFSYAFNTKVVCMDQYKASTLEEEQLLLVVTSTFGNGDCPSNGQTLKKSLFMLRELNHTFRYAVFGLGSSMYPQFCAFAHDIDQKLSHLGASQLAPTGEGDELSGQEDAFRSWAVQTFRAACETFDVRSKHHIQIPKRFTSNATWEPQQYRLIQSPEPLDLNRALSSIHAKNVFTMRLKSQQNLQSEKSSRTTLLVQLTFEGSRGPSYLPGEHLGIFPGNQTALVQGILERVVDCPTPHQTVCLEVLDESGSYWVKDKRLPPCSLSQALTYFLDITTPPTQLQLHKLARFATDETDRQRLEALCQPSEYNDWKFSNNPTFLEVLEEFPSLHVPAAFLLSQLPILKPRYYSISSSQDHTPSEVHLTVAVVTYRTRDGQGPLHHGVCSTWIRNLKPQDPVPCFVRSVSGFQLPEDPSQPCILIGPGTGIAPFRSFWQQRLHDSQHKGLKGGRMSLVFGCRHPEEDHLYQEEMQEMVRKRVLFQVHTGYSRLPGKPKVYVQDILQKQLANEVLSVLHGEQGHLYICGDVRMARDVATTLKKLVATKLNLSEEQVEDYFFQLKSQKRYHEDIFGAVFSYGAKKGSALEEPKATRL
Method: A=J774 stimulated, B=J774 stimulated+L-NMMA, C=control and D=control+L-NMMA.
Macrophages (J774 cells) were stimulated with a cytokine cocktail (LPS/IFN/TNF) for 24 h, to induce iNOS expression, and cell lysates were collected. […] Low molecular weight molecules were removed from lysates using 30000 MW cut-off filters. Lysates were incubated on 3000 MW filters with [^14C]L-NMMA for 15 min ([…] L-NMMA), washed 3× with cold TRIS buffer and filters counted.

[1] = biological target: T2, bsNOS fragment (bacillus subtilis nitric oxide synthase oxygenase domain) (Bacillus subtilis, UniProt O34453); assay: [14C]L-NMMA binding to bsNOS fragment on 30000 MW cut off filters; details: 1000-fold excess unlabelled L-NMMA, FIG. 2, preliminary
T2 construct: made in house
Method: (§1) A=Control and B=excess L-NMMA.
A bacillus subtilis nitric oxide synthase oxygenase domain (“fragment”) was PCR amplified from genomic DNA with Nde1 and BamH1 sites added at the 5′ and 3′ ends respectively and cloned into pET15b vector. The bsNOS fragment corresponded to SEQ ID NO: 2 and was purified as previously described (Pant et al., Biochemistry; 2002; 41:11071-11079).
[^14C]L-NMMA (3.75 nmol) was incubated with the bsNOS fragment ([…]) on 30000 MW cut off filters in the presence and absence (Control) of 1000-fold excess unlabelled L-NMMA.

[2] = biological target: T2, bsNOS fragment (bacillus subtilis nitric oxide synthase oxygenase domain); assay: bsNOS binding to [14C]L-NMMA, PVDF filters with rapid washes; details: L-NMMA 1 mM, FIG. 3
Method: as §1
A modified method previously described for binding [3H]nitroarginine to mammalian NOS was used to ensure rapid washes of the bsNOS fragment complexes and ligand to reduce time for dissociation (Liu Q and Gross S S, Methods Enzymol. 1996; 268:311-24). [^14C]L-NMMA ([…] −20000 counts total) was incubated with the bsNOS fragment ([…]) in assay buffer containing: 50 mM Tris pH 7.6; 50 uM BH4, 0.5 mM DTT. Reactants were incubated for 15 min at room temperature and NOS-bound [^14C]L-NMMA was separated from free [^14C]L-NMMA using PVDF filters and 3×1 ml rapid washes in cold Tris pH 7.6. Background was determined by the addition of 1 mM L-NMMA to bsNOS in assay buffer. Filters were added to 5 ml scintillation cocktail and counted in scintillation counter (Beckmann).

T2 sequence (O34453 other isoform, or with tags, fused parts or gaps with the stated changes): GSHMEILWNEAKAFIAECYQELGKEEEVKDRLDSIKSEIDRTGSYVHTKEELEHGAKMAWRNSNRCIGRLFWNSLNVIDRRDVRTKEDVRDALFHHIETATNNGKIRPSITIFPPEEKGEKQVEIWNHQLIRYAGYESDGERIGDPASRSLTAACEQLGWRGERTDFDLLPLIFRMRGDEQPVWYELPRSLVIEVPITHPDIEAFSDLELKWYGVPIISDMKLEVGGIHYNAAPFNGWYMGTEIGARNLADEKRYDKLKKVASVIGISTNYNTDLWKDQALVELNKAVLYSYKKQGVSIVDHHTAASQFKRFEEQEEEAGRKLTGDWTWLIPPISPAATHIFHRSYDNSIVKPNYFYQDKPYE

saturation of DDAH in calorimetry experiments (DDAH; inactive mutations C249S, H162A, E114Q, very high concentrations of ADMA (10 mM)): saturation was never reached | concentrations necessary to get binding to DDAH (DDAH; initial studies): millimolar concentrations
SMILES: CN(C)C(=N)NCCCC(N)C(=O)O (stereo not drawn) [ADMA, asymmetric dimethylarginine]
inhibition of NOS (in words) (nitric oxide synthase): equipotent

SMILES: CNC(=N)NCCC[C@H](N)C(=O)O [L-NMMA, N^G-monomethyl-L-arginine]
competition of [14C]L-NMMA binding by unlabelled ligand (iNOS): competed out | competition of [14C]L-NMMA binding by unlabelled ligand [1]: competed out | [14C]L-NMMA binding in the presence of unlabelled ligand [2]: reduced to background | inhibition of NOS (in words) (nitric oxide synthase): equipotent

SMILES: CN=C(NC)NCCC[C@H](N)C(=O)O [SDMA, symmetric dimethylarginine]
inhibition of NOS (in words) (nitric oxide synthase): does not inhibit NOS

SMILES: N=C(N)NCCC[C@H](N)C(=O)O [arginine]
Km (nitric oxide synthase; nitric oxide synthase, the 3 enzymes, read-out: Km for arginine): 7 to 19 µM
